US20230295118A1 (EnhancedBio Inc., priority 2022, published 2023)

What was measured:
Assay type in all cases: cell-based
[1] = tested on: mantle cell lymphoma cell (Mino or JeKo-1); assay: Antiproliferative effect, MTS cell viability assay; settings: 72 h; for IC50: mantle cell lymphoma cell (Mino or JeKo-1), MTS assay, read-out: IC50 (anti-proliferation)
Procedure, shortened: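 MTS read-out (formazan absorbance at 490 nm) after 72 h exposure of Mino cells to 0–1 μM compound (0.0001, 0.001, 0.01, 0.1, 1 μM). Palbociclib and abemaciclib served as positive controls.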

CDK4 = molecular target: T1, CDK4 (Homo sapiens, UniProt P11802); assay: CDK4 degradation (DC50, Dmax)
T1 construct: endogenous in cells
T1 sequence (P11802 whole entry): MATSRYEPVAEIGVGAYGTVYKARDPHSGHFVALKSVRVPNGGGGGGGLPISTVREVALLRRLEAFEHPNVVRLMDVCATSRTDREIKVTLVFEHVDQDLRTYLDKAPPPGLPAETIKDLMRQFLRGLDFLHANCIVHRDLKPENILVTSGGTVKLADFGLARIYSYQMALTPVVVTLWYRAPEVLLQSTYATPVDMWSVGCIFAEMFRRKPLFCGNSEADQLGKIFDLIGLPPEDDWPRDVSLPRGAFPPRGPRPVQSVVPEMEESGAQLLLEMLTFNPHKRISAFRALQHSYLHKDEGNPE

CDK6 = molecular target: T2, CDK6 (Homo sapiens, UniProt Q00534); assay: CDK6 degradation (DC50, Dmax)
T2 construct: endogenous in cells
T2 sequence (Q00534 whole entry): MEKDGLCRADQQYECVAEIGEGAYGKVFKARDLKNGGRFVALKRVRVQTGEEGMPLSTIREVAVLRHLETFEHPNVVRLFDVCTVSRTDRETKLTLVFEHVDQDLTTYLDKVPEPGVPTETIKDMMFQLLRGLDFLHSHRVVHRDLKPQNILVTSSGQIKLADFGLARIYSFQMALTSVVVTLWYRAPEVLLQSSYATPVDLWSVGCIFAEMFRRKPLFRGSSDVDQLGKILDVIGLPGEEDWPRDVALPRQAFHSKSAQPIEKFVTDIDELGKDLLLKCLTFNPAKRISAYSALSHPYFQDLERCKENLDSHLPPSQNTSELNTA

Structure (SMILES) | IC50 [1] | DC50 (CDK4) | Dmax (CDK4) | DC50 (CDK6) | Dmax (CDK6) | inhibition of cell proliferation of Mino cells ([1]; Mino cells, 0-1 μM, result in words)
CC(=O)c1c(C)c2cnc(Nc3ccc(N4CCN(C(=O)C5CCN(c6ccc7c(c6)C(=O)N(C6CCC(=O)NC6=O)C7=O)CC5)CC4)cn3)nc2n(C2CCCC2)c1=O (stereo not shown) [Compound 114, 5-(4-(4-(6-((6-acetyl-8-cyclopentyl-5-methyl-7-oxo-7,8-dihydropyrido[2,3-d]pyrimidin-2-yl)amino)pyridin-3-yl)piperazine-1-carbonyl)piperidin-1-yl)-2-(2,6-dioxopiperidin-3-yl) isoindoline-1,3-dione] | < 50 nM | 50 to 200 nM | > 80% | 50 to 200 nM | > 80% | 
Cc1nc2c(F)cc(-c3nc(Nc4ccc(CC5CCN(C6CCN(c7ccc(C(=O)NC8CCC(=O)NC8=O)cc7)CC6)CC5)cn4)ncc3F)cc2n1C(C)C (stereo not shown) [Compound 171, N-(2,6-dioxopiperidin-3-yl)-4-(4-((6-((5-fluoro-4-(4-fluoro-1-isopropyl-2-methyl-1H-benzo[d]imidazol-6-yl)pyrimidin-2-yl)amino)pyridin-3-yl)methyl)-[1,4′-bipiperidin]-1′-yl) benzamide] | 50 to 200 nM | 50 to 200 nM | > 60% | 50 to 200 nM | > 60% | 
CC(=O)c1c(C)c2cnc(Nc3ccc(N4CCN(CCCCN(C)c5ccc6c(c5)C(=O)N(C5CCC(=O)NC5=O)C6=O)CC4)cn3)nc2n(C2CCCC2)c1=O (stereo not shown) [Compound 59, 5-((4-(4-(6-((6-acetyl-8-cyclopentyl-5-methyl-7-oxo-7,8-dihydropyrido[2,3-d]pyrimidin-2-yl)amino)pyridin-3-yl)piperazin-1-yl)butyl)(methyl)amino)-2-(2,6-dioxopiperidin-3-yl) isoindoline-1,3-dione] | 50 to 200 nM | 50 to 200 nM | > 60% | 50 to 200 nM | > 60% | 
CC(=O)c1c(C)c2cnc(Nc3ccc(N4CCN(C(=O)N5CCC(CCN6CCC(c7ccc8c(c7)C(=O)N(C7CCC(=O)NC7=O)C8=O)CC6)CC5)CC4)cn3)nc2n(C2CCCC2)c1=O (stereo not shown) [Compound 29, 5-(1-(2-(1-(4-(6-((6-acetyl-8-cyclopentyl-5-methyl-7-oxo-7,8-dihydropyrido[2,3-d]pyrimidin-2-yl)amino)pyridin-3-yl)piperazine-1-carbonyl)piperidin-4-yl)ethyl)piperidin-4-yl)-2-(2,6-dioxopiperidin-3-yl)isoindoline-1,3-dione] | > 200 nM | > 200 nM | > 50% | > 200 nM | > 50% | 
CC(=O)c1c(C)c2cnc(Nc3ccc(N4CCN(CCCCNc5ccc6c(c5)CN(C5CCC(=O)NC5=O)C6=O)CC4)cn3)nc2n(C2CCCC2)c1=O (stereo not shown) [Compound 54, 3-(5-((4-(4-(6-((6-acetyl-8-cyclopentyl-5-methyl-7-oxo-7,8-dihydropyrido[2,3-d]pyrimidin-2-yl)amino)pyridin-3-yl)piperazin-1-yl)butyl)amino)-1-oxoisoindolin-2-yl)piperidine-2,6-dione] | < 50 nM | 50 to 200 nM | > 60% | 50 to 200 nM | > 60% | 
CC(=O)c1c(C)c2cnc(Nc3ccc(N4CCN(C(=O)N5CCC(CCN6CCN(c7ccc8c(c7)C(=O)N(C7CCC(=O)NC7=O)C8=O)CC6)CC5)CC4)cn3)nc2n(C2CCCC2)c1=O (stereo not shown) [Compound 19, 5-(4-(2-(1-(4-(6-((6-acetyl-8-cyclopentyl-5-methyl-7-oxo-7,8-dihydropyrido[2,3-d]pyrimidin-2-yl)amino)pyridin-3-yl)piperazine-1-carbonyl)piperidin-4-yl)ethyl)piperazin-1-yl)-2-(2,6-dioxopiperidin-3-yl)isoindoline-1,3-dione] | < 50 nM | 50 to 200 nM | > 60% | 50 to 200 nM | > 60% | 
CC(=O)c1c(C)c2cnc(Nc3ccc(C4CCN(CC5CN(c6ccc(C(=O)NC7CCC(=O)NC7=O)cc6)C5)CC4)cn3)nc2n(C2CCCC2)c1=O (stereo not shown) [Compound 127, 4-(3-((4-(6-((6-acetyl-8-cyclopentyl-5-methyl-7-oxo-7,8-dihydropyrido[2,3-d]pyrimidin-2-yl)amino)pyridin-3-yl)piperidin-1-y)methyl)azetidin-1-yl)-N-(2,6-dioxopiperidin-3-yl)benzamide] | < 50 nM | 50 to 200 nM | > 80% | 50 to 200 nM | > 80% | 
CC(=O)c1c(C)c2cnc(Nc3ccc(N4CCN(C(=O)N5CCC(CN6CCC(c7ccc8c(c7)CN(C7CCC(=O)NC7=O)C8=O)CC6)CC5)CC4)cn3)nc2n(C2CCCC2)c1=O (stereo not shown) [Compound 18, 3-(5-(1-((1-(4-(6-((6-acetyl-8-cyclopentyl-5-methyl-7-oxo-7,8-dihydropyrido[2,3-d]pyrimidin-2-yl)amino)pyridin-3-yl)piperazine-1-carbonyl)piperidin-4-yl)methyl)piperidin-4-yl)-1-oxoisoindolin-2-yl) piperidine-2,6-dione] | > 200 nM | > 200 nM | > 50% | > 200 nM | > 50% | 
Cc1nc2c(F)cc(-c3nc(Nc4ccc(CN5CCN(C6CCN(c7ccc(NC8CCC(=O)NC8=O)cc7)CC6)CC5)cn4)ncc3F)cc2n1C(C)C (stereo not shown) [Compound 168, 3-((4-(4-(4-((6-((5-fluoro-4-(4-fluoro-1-isopropyl-2-methyl-1H-benzo[d]imidazol-6-yl)pyrimidin-2-yl)amino)pyridin-3-yl)methyl)piperazin-1-yl)piperidin-1-yl)phenyl)amino) piperidine-2,6-dione] | < 50 nM | 50 to 200 nM | > 80% | < 50 nM | > 80% | 
Cc1nc2c(F)cc(-c3nc(Nc4ccc(CN5CCN(CCCNc6ccc7c(c6)CN(C6CCC(=O)NC6=O)C7=O)CC5)cn4)ncc3F)cc2n1C(C)C (stereo not shown) [Compound 74, 3-(5-((3-(4-((6-((5-fluoro-4-(4-fluoro-1-isopropyl-2-methyl-1H-benzo[d]imidazol-6-yl)pyrimidin-2-yl)amino)pyridin-3-yl)methyl)piperazin-1-yl)propyl)amino)-1-oxoisoindolin-2-yl)piperidine-2,6-dione] | < 50 nM | < 50 nM | > 80% | < 50 nM | > 80% | 
CC(=O)c1c(C)c2cnc(Nc3ccc(N4CCN(C5CCN(c6ccc7c(c6)C(=O)N(C6CCC(=O)NC6=O)C7=O)CC5)CC4)cn3)nc2n(C2CCCC2)c1=O (stereo not shown) [Compound 63, 5-(4-(4-(6-((6-acetyl-8-cyclopentyl-5-methyl-7-oxo-7,8-dihydropyrido[2,3-d]pyrimidin-2-yl)amino)pyridin-3-yl)piperazin-1-yl)piperidin-1-yl)-2-(2,6-dioxopiperidin-3-yl)isoindoline-1,3-dione] | < 50 nM | 50 to 200 nM | > 80% | < 50 nM | > 80% | dose-dependent inhibition of cell proliferation
CC(=O)c1c(C)c2cnc(Nc3ccc(N4CCN(CCC5CCN(c6ccc7c(c6)C(=O)N(C6CCC(=O)NC6=O)C7=O)CC5)CC4)cn3)nc2n(C2CCCC2)c1=O (stereo not shown) [Compound 69, 5-(4-(2-(4-(6-((6-acetyl-8-cyclopentyl-5-methyl-7-oxo-7,8-dihydropyrido[2,3-d]pyrimidin-2-yl)amino)pyridin-3-yl)piperazin-1-yl)ethyl)piperidin-1-yl)-2-(2,6-dioxopiperidin-3-yl)isoindoline-1,3-dione] | 50 to 200 nM | 50 to 200 nM | > 60% | 50 to 200 nM | > 60% | 
